Values of other authors, collected in US20200188476A1, “ANTI-MICROBIAL AGENT-POLYMER CONJUGATES AND METHODS OF USE THEREOF” (The Regents of the University of California, priority 2017, published 2020).

Assays:
bacteria [1] = tested on: bacteria
bacteria [2] = tested on: bacteria; remark: listed apart in the source
[3] = human, in vivo

Substance: octanoyl polymyxin B nonapeptide
- inhibition of bacterial growth (bacteria [1]): very potent agents to inhibit bacterial growth

Substance: octanoyl polymyxin B heptapeptide
- concentration that inhibits the growth of bacteria (bacteria [1]): 128 µg/mL

Substance: Polymyxin B nonapeptide [nonapeptide of polymyxin B]
- reduction of antibacterial activity relative to polymyxin B (bacteria [2]): 2-64 fold
- reduction of toxicity in cell culture relative to polymyxin B (cell culture): about 100 fold

Substance: octanoyl polymyxin B octapeptide
- inhibition of bacterial growth (bacteria [1]): very potent agents to inhibit bacterial growth

Substance: colistin
- overall incidence of neurotoxicity or neuropathy [3]: 7.3%
